Measurements as given in ChEMBL document CHEMBL2010689 (J Med Chem, 2012).
One block for each compound: values may come before it.

How the values were obtained:
[1] = Metabolic stability in dog liver S9 fraction assessed as compound remaining after 2 hrs; assay type: ADME, subcellular, Canis lupus familiaris; conditions: read-out: Stability
[2] = Oral bioavailability in Sprague-Dawley rat at 5 mg/kg; assay type: ADME, organism-based; conditions: in vivo
[3] = Metabolic stability in human liver S9 fraction assessed as compound remaining after 2 hrs; assay type: ADME, subcellular; conditions: read-out: Stability
[4] = Metabolic stability in monkey liver S9 fraction assessed as compound remaining after 2 hrs; assay type: ADME, subcellular, Macaca mulatta; conditions: rhesus monkey, read-out: Stability
[5] = Metabolic stability in rat liver S9 fraction assessed as compound remaining after 2 hrs; assay type: ADME, subcellular; conditions: read-out: Stability
[6] = Metabolic stability in mouse liver S9 fraction assessed as compound remaining after 2 hrs; assay type: ADME, subcellular; conditions: read-out: Stability
[7] = molecular target: Vascular endothelial growth factor receptor 2 (Homo sapiens, UniProt P35968)
Description: Inhibition of human recombinant VEGF-R2 expressed in baculovirus expression system using GST-PLCgamma as substrate after 1 hr by time-resolved fluorescence analysis

[8] = molecular target: Angiopoietin-1 receptor (Homo sapiens, UniProt Q02763)
Angiopoietin-1 receptor, sequence (Q02763 whole entry): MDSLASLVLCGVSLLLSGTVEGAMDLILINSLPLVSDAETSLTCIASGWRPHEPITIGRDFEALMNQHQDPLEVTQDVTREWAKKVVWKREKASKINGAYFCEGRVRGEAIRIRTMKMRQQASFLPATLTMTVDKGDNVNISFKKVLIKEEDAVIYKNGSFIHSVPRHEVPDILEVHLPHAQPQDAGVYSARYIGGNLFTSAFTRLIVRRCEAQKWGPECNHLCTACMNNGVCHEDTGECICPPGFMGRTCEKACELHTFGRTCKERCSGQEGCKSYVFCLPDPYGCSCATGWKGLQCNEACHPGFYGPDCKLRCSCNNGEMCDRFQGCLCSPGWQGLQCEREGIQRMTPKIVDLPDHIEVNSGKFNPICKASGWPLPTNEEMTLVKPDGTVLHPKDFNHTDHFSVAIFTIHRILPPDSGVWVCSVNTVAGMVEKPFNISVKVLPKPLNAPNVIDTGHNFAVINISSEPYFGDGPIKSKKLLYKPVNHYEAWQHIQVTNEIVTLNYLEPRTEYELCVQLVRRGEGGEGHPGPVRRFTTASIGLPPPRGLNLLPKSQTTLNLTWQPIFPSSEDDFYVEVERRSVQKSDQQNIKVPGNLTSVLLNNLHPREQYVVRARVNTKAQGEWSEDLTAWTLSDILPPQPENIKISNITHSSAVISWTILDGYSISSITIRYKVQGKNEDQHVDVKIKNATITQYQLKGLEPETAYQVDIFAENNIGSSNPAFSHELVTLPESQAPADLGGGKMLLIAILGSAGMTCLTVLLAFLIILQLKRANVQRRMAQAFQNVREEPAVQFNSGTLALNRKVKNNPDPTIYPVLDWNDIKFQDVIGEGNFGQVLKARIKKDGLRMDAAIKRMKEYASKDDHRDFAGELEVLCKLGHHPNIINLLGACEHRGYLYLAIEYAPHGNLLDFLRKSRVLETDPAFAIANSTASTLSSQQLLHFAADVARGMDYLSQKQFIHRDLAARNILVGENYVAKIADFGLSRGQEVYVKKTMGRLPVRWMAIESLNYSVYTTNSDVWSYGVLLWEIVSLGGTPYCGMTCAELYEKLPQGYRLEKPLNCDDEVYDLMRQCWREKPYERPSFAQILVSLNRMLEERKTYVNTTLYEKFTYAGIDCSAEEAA
Description: Inhibition of human recombinant Tie2 expressed in baculovirus expression system using GST-PLCgamma as substrate after 1 hr by time-resolved fluorescence analysis

Vascular endothelial growth factor receptor 2, sequence (P35968 whole entry): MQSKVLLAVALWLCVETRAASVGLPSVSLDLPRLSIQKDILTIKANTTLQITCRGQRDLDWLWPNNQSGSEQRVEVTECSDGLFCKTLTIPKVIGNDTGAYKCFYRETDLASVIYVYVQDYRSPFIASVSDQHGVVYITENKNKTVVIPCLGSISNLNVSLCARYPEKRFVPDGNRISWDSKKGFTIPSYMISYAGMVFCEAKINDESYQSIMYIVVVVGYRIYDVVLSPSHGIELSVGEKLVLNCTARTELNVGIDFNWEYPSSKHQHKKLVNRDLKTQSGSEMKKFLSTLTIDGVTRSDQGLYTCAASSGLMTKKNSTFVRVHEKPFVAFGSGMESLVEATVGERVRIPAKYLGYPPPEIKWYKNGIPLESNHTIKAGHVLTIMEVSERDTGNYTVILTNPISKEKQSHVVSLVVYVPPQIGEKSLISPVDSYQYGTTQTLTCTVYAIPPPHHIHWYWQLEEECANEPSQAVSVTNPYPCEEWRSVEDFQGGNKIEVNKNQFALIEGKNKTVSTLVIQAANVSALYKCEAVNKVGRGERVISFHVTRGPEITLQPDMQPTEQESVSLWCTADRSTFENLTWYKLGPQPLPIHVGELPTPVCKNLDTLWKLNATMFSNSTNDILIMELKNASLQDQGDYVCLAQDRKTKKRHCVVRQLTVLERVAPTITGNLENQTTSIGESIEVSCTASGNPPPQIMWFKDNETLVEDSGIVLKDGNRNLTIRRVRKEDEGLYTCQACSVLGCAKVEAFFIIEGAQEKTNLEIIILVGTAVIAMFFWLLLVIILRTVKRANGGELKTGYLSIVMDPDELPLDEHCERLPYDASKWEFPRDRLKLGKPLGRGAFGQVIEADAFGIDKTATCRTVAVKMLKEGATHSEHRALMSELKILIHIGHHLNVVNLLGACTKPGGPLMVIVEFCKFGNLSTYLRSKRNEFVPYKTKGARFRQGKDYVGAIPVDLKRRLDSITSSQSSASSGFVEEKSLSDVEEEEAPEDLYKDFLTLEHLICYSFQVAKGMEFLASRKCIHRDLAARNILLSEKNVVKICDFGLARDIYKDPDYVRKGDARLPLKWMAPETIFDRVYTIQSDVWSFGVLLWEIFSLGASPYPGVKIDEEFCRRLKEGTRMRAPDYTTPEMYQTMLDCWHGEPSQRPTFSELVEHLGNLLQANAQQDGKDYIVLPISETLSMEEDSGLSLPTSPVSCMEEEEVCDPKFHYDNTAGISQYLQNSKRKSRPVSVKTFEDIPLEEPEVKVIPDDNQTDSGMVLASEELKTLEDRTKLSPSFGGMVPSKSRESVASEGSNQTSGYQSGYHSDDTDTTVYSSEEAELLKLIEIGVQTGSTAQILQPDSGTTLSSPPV

- remaining at 2 h [1]: 65%
- bioavailability [2]: 22%
- remaining at 2 h [3]: 54%
- remaining at 2 h [4]: 44%
- remaining at 2 h [5]: 65%
- remaining at 2 h [6]: 65%
SMILES: CCCn1c2ccc(Nc3ncccn3)cc2c2c3c(c4c(c21)CCc1nn(C)cc1-4)C(=O)NC3

- IC50 [7]: > 3 µM
- IC50 [8]: > 3 µM
SMILES: Cc1cc(C)nc(Nc2ccc3c(c2)c2c4c(c5c(c2n3CC(C)C)CCc2nn(C)cc2-5)C(=O)NC4)n1

- IC50 [8]: > 1 µM
SMILES: COc1ccnc(Nc2ccc3c(c2)c2c4c(c5c(c2n3CC(C)C)CCc2nn(C)cc2-5)C(=O)NC4)n1

- IC50 [8]: > 3 µM
SMILES: CC(C)Cn1c2ccc(Nc3nccc(C(F)(F)F)n3)cc2c2c3c(c4c(c21)CCc1nn(C)cc1-4)C(=O)NC3

- IC50 [8]: > 3 µM
SMILES: CC(C)n1c2ccc(Nc3ccncc3)cc2c2c3c(c4c(c21)CCc1nn(C)cc1-4)C(=O)NC3

- IC50 [8]: > 10 µM
SMILES: CC(C)OCc1ccc2c(c1)c1c3c(c4c(c1n2CCCO)Cc1ccccc1-4)C(=O)NC3 [CEP-5214]
